Assay results as given in ChEMBL document CHEMBL5325393, “A mini-review on synthesis and antiviral activity of natural product oxetanocin A derivatives” (Bioorg Med Chem, 2022).
Values after ≈ are worked out from the molar mass of the structure shown.

Columns and labels:
Human alphaherpesvirus 2 [1] = experiment: Antiviral activity against HSV-2 assessed as inhibition of viral growth; type: functional, organism-based
Human alphaherpesvirus 1 [2] = experiment: Antiviral activity against HSV-1 assessed as inhibition of viral growth; type: functional, organism-based
Human betaherpesvirus 5 [3] = experiment: Antiviral activity against HCMV assessed as inhibition of viral growth; type: functional, organism-based
[4] = tested on: Human immunodeficiency virus; experiment: Antiviral activity against HIV assessed as inhibition of viral growth; type: functional, organism-based; conditions: Human immunodeficiency virus 1
Hepatitis B virus [5] = experiment: Antiviral activity against HBV assessed as inhibition of viral growth; type: functional, organism-based
Murid betaherpesvirus 1 = experiment: Antiviral activity against MCMV Smith infected in MEF cells assessed as reduction in plaque formation by plaque reduction assay; type: functional; conditions: Murid betaherpesvirus 1, Smith, read-out: ED50 (the source's name)
[6] = tested on: Human immunodeficiency virus; experiment: Antiviral activity against HIV infected in human MT4 cells by plaque reduction assay; type: functional, organism-based; conditions: Human immunodeficiency virus 1, MT4
[7] = tested on: Human immunodeficiency virus 1; experiment: Antiviral activity against HIV-1 HTLV-IIIB infected in human MT4 cells assessed as inhibition of viral replication; type: functional, organism-based; conditions: Human immunodeficiency virus 1, HTLV-IIIB
Human betaherpesvirus 5 [8] = experiment: Antiviral activity against HCMV AD169 infected in HELF cells by plaque reduction assay; type: functional, organism-based; conditions: Human betaherpesvirus 5, AD169, HELF
Human alphaherpesvirus 2 [9] = experiment: Antiviral activity against HSV-2 assessed as inhibition of cytopathic effect at 5.8 ug per well relative to control; type: functional
[10] = Cytotoxicity against African green monkey Vero cells assessed as inhibition of cell growth at 132.6 microg/ml relative to control; type: toxicity, cell-based; conditions: chlorocebus sabaeus, at 132.6 µg/mL
[11] = tested on: Human immunodeficiency virus 1; experiment: Antiviral activity against HIV-1 assessed as inhibition of viral replication; type: functional, organism-based
[12] = tested on: Human immunodeficiency virus 1; experiment: Antiviral activity against HIV-1 HTLV-IIIB infected in human MT4 cells assessed as inhibition of viral replication incubated for 4 days by immunofluorescence assay; type: functional, organism-based; conditions: Human immunodeficiency virus 1, HTLV-IIIB, MT4, 96 h
[13] = tested on: Human immunodeficiency virus; experiment: Antiviral activity against HIV RF assessed as inhibition of viral growth; type: functional, organism-based; conditions: Human immunodeficiency virus 1, RF
[14] = tested on: Human immunodeficiency virus 2; experiment: Antiviral activity against HIV-2 D194 infected in PBMC assessed as inhibition of viral growth; type: functional, organism-based; conditions: Human immunodeficiency virus 2, D194, PBMC
[15] = tested on: Human immunodeficiency virus 1; experiment: Antiviral activity against HIV-1 III B infected in PBMC assessed as inhibition of viral growth; type: functional, organism-based; conditions: Human immunodeficiency virus 1, III B
HUVEC = experiment: Angiogenic activity against HUVEC cells assessed as relative area of tube formation at 100 uM incubated for 10 days by tube formation assay; type: functional, Homo sapiens; conditions: time 10 day
CEM = experiment: Inhibition of HIV reverse transcriptase in human CEM cells at 400 uM relative to control; type: cell-based; conditions: Human immunodeficiency virus
[16] = tested on: Human immunodeficiency virus 1; experiment: Antiviral activity against HIV-1 infected in human CEM cells assessed as inhibition of cytopathogenicity at 400 uM relative to control; type: functional; conditions: Human immunodeficiency virus 1, CCRF-CEM
Cytomegalovirus = experiment: Antiviral activity against CMV AD-169 infected in HEL cells assessed as reduction in virus plaque formation; type: functional, organism-based; conditions: Human betaherpesvirus 5, AD-169, HEL
MT4 = experiment: Cytotoxicity against human MT4 cells assessed as inhibition of cell growth; type: functional
Human alphaherpesvirus 1 [17] = experiment: Antiviral activity against thymidine kinase positive HSV-1 123 infected in HFF cells assessed as reduction in viral replication incubated for 3 days by crystal violet staining based microplate reader analysis; type: functional, organism-based; conditions: Human alphaherpesvirus 1, 123, HFF, 72 h
Human alphaherpesvirus 2 [18] = experiment: Antiviral activity against HSV-2 186 infected in African green monkey Vero cells assessed as reduction in virus induced cytopathogenicity by plaque reduction assay; type: functional, organism-based; conditions: Human alphaherpesvirus 2, 186, Vero
Human alphaherpesvirus 1 [19] = experiment: (§1) Antiviral activity against lethal intracerebral HSV-1 123 infected in po dosed Swiss mouse model assessed as increase in animal survival administered as single double strength loading dose at 7 hrs post-inoculation and single strength dose at 23, 31, 47, 55, 71, 79 hrs post-inoculation and monitored for 21 days; type: functional; conditions: time 21 day
Human alphaherpesvirus 1 [20] = experiment: Antiviral activity against HSV-1 KOS infected in African green monkey Vero cells assessed as reduction in virus induced cytopathogenicity by plaque reduction assay; type: functional, organism-based; conditions: Human alphaherpesvirus 1, KOS
Human alphaherpesvirus 1 [21] = experiment: as §1, with “systemic” for “intracerebral”; type: functional; conditions: time 21 day
Human alphaherpesvirus 1 [22] = experiment: Antiviral activity against thymidine kinase positive HSV-1 E-377 infected in HFF cells assessed as reduction in viral replication incubated for 3 days by crystal violet staining based microplate reader analysis; type: functional, organism-based; conditions: Human alphaherpesvirus 1, E-377, HFF, 72 h
Human alphaherpesvirus 1 [23] = experiment: Antiviral activity against thymidine kinase positive HSV-1 SC-16 infected in HFF cells assessed as reduction in viral replication incubated for 3 days by crystal violet staining based microplate reader analysis; type: functional, organism-based; conditions: Human alphaherpesvirus 1, SC-16, HFF, 72 h
Human alphaherpesvirus 2 [24] = experiment: Antiviral activity against thymidine kinase deficient HSV-2 assessed as inhibition of viral replication by plaque reduction assay; type: functional, organism-based
[25] = tested on: Human immunodeficiency virus 1; experiment: Antiviral activity against HIV-1 HTLV-IIIB infected in human MT4 cells assessed as reduction in virus induced cytopathogenicity by immunofluorescence assay; type: functional, organism-based; conditions: Human immunodeficiency virus 1, HTLV-IIIB
[26] = Cytotoxicity against human Detroit 551 cells assessed as inhibition of cell growth by colorimetric method; type: toxicity, cell-based
[27] = Cytotoxicity against human HB611 cells assessed as inhibition of cell growth incubated for 48 hrs by colorimetric method; type: functional
[28] = Cytotoxicity against human CCD-18Co cells assessed as inhibition of cell growth by colorimetric method; type: toxicity, cell-based
Hepatitis B virus [29] = experiment: Antiviral activity against HBV infected in human HB611 cells assessed as inhibition of viral DNA replication incubated for 15 days by SDS-PAGE based autoradiographic analysis; type: functional, organism-based; conditions: HB611, 360 h

Work on `Nc1nc(=O)c2ncn([C@@H]3C[C@H](CO)[C@H]3CO)c2[nH]1` [LOBUCAVIR] yielded an IC50 (Human alphaherpesvirus 2 [1]) of 80 nM, an IC50 (Human alphaherpesvirus 1 [2]) of 47 nM and an IC50 (Human betaherpesvirus 5 [3]) of 400 nM. The IC50 [4] was 300 nM, the IC50 (Hepatitis B virus [5]) was 860 nM and the EC50 (Murid betaherpesvirus 1) was 0.1 µg/mL (≈ 0.377 µM).
Work on `O=C(Nc1ncnc2c1ncn2[C@@H]1O[C@H](CO)[C@H]1O)c1ccccc1` yielded an IC50 [6] of 5.5 µg/mL (≈ 16.1 µM).
`Nc1ncnc2c1ncn2[C@@H]1O[C@H](CO)[C@H]1CO` gave an IC50 [7] of 1700 nM, an IC50 [6] of 4.3 µg/mL (≈ 17.1 µM) and an IC50 (Human betaherpesvirus 5 [8]) of 13 µM. It also gave an inhibition at 5.8 µg/disc (Human alphaherpesvirus 2 [9]) of 50%, an inhibition at 132.6 microg/ml [10] of 50% and an IC50 (Human betaherpesvirus 5 [3]) of 13 µg/mL. For the same molecule, the EC50 [11] was 1.4 µg/mL (≈ 5.57 µM), the EC50 [12] was 1400 nM and the IC50 [13] was 0.5 µg/mL (≈ 1.99 µM).
In the case of `O=c1[nH]c(=O)c2ncn([C@@H]3O[C@H](CO)[C@H]3CO)c2[nH]1`, the IC50 (Human betaherpesvirus 5 [8]) is reported as > 50 µM and the EC50 [12] is reported as > 100000 nM.
`Nc1ncnc2c1ncn2[C@H]1C[C@@](F)(CO)C1` showed an IC50 [14] of 1.5 µM and an IC50 [15] of 3.9 µM.
In the case of `Nc1nc(Cl)nc2c1ncn2[C@H]1C[C@H](CO)C1`, the Ratio (HUVEC) is reported as 3.32.
For `Nc1nc2c(ncn2[C@H]2C[C@@](O)(CO)C2)c(=O)[nH]1`, the inhibition (CEM) was < 50% and the inhibition at 400 µM [16] was 59%.
With `C=C1C[C@@H](n2cnc3c(=O)[nH]c(N)nc32)[C@@H]1CO` the EC50 (Cytomegalovirus) was 70 µg/mL (≈ 283 µM).
Molecule `O=c1[nH]cnc2c1ncn2[C@@H]1O[C@H](CO)[C@H]1CO` has a CC50 (MT4) of 330 µM, an IC50 (Human betaherpesvirus 5 [8]) of 18 µM and an EC50 [12] of 2200 nM.
In the case of `O=c1[nH]cnc2c1ncn2[C@H]1C[C@@](F)(CO)C1`, the IC50 [14] is reported as 46 µM and the IC50 [15] is reported as 95 µM.
Molecule `Nc1nc2c(ncn2COCCO)c(=O)[nH]1` [ACYCLOVIR] has an EC50 (Human alphaherpesvirus 1 [17]) of 200 nM, an EC50 (Cytomegalovirus) of 40 µg/mL (≈ 178 µM) and an EC50 (Human alphaherpesvirus 2 [1]) of 0.39 µg/mL (≈ 1.73 µM). For the same molecule, the EC50 (Human alphaherpesvirus 2 [18]) was 0.18 µg/mL (≈ 0.799 µM), the ED50 (Human alphaherpesvirus 1 [19]) was >500 mg/kg.day and the EC50 (Human alphaherpesvirus 1 [2]) was 0.32 µg/mL (≈ 1.42 µM). For the same molecule, the EC50 (Human alphaherpesvirus 1 [20]) was 0.41 µg/mL (≈ 1.82 µM), the ED50 (Human alphaherpesvirus 1 [21]) was >500 mg/kg.day and the EC50 (Human alphaherpesvirus 1 [22]) was 200 nM. It also gave an EC50 (Human alphaherpesvirus 1 [23]) of 200 nM and an IC50 (Human alphaherpesvirus 2 [24]) of 12 µM.
In the case of `Nc1ncnc2c1ncn2[C@@H]1O[C@H](CO)[C@@H]1O`, the IC50 [6] is reported as 0.54 µg/mL (≈ 2.28 µM).
Work on `CC(C)Oc1nc(N)c2ncn([C@@H]3C[C@H](CO)[C@H]3CO)c2n1` yielded a Ratio (HUVEC) of 1.9.
Molecule `O=c1[nH]cnc2c1ncn2[C@H]1CC[C@@H](CO)O1` [DIDANOSINE] has an EC50 [25] of 0.46 µg/mL (≈ 1.95 µM) and an EC50 [11] of 0.46 µg/mL (≈ 1.95 µM).
In the case of `Cc1cn([C@H]2C[C@H](N=[N+]=[N-])[C@@H](CO)O2)c(=O)[nH]c1=O` [ZIDOVUDINE], the EC50 [11] is reported as 0.003 µg/mL (≈ 0.0112 µM).
In the case of `Nc1nc2c(ncn2[C@@H]2O[C@H](CO)[C@H]2CO)c(=O)[nH]1`, the IC50 (Human betaherpesvirus 5 [8]) is reported as 1 µM, the IC50 [26] is reported as > 300 µM and the CC50 [27] is reported as > 1 mM. For the same molecule, the EC50 [12] was 2200 nM, the IC50 [28] was > 300 µM and the IC50 (Hepatitis B virus [29]) was 1500 nM.
With `Nc1nc(N)c2ncn([C@@H]3O[C@H](CO)[C@H]3CO)c2n1` the IC50 (Human betaherpesvirus 5 [8]) was 1 µM and the EC50 [12] was 2200 nM.
